The values that follow come from US8575197B2, “Pyrolinone derivative and pharmaceutical composition comprising the same” (Shionogi & Co., Ltd., priority 2008, dated 2013).

Each structure is given as a SMILES string.

Chain of human P2X3 receptor (P56373 whole entry): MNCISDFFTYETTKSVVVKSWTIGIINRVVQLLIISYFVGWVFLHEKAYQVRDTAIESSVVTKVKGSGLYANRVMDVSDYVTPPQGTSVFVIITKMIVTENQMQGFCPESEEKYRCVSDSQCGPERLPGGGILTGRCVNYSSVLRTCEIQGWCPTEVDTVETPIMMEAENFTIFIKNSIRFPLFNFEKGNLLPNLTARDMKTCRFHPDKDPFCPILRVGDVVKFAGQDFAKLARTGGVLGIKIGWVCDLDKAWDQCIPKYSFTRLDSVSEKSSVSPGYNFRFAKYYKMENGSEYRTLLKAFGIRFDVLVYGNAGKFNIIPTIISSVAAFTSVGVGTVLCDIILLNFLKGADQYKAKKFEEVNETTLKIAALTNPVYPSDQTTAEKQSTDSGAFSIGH

The target of this assay is human P2X3 receptor (Homo sapiens (Human), UniProt P56373). Put plainly: P2X3 receptor inhibition, ATP-evoked Fluo-3 calcium fluorescence (FDSS 3000). Conditions: C6BU-1 cell transfected with human P2X3 receptor gene; ATP-evoked Fluo-3 fluorescence. The assay is classed as cell-based. The protocol:
Stably expressing cell line (C6BU-1 cell transfected with human P2X3 receptor gene (GenBank accession number Y07683)) was used. The cells were seeded in a 96-well microtiter plate at a concentration of 8000 cells/well and cultured in the medium (8.3% fetal bovine serum, 8.3% horse serum, 1% antibiotic and antifungal in DMEM) for one day at 37° C. under 5% carbon dioxide atmosphere. The medium was replaced with 4 μM Fluo-3-AM solution (pH7.5) containing 20 mM HEPES, 137 mM NaCl, 2.7 mM KCl, 0.9 mM MgCl2, 5.0 mM CaCl2, 5.6 mM D-glucose, 2.5 mM probenecid, 10% BSA, and 0.08% Pluronic F-127, and incubated at 37° C. under 5% dioxide carbon atmosphere for one hour. The plate was washed with washing buffer (20 mM HEPES, 137 mM NaCl, 2.7 mM KCl, 0.9 mM MgCl2, 5.0 mM CaCl2, 5.6 mM D-glucose, 2.5 mM probenecid, pH7.5), and each well was added with 40 μL of this buffer. The plate was placed in High-Throughput Screening System FDSS 3000 (Hamamatsu Photonics K.K.). Measurement of fluorescence intensity by FDSS 3000 was started, and 40 μL of DMSO solutions containing different concentrations of the test compound as prepared by dilution with dilution buffer (20 mM HEPES, 137 mM NaCl, 2.7 mM KCl, 0.9 mM MgCl2, 5.0 mM CaCl2, 5.6 mM D-glucose, 2.5 mM probenecid, 0.1% Pluronic F-127, pH7.5) were dispensed to each well through the built-in automatic dispenser. Five minutes after, 40 nM ATP solution (50 μL) prepared by dilution with the dilution buffer was dispensed through the built-in automatic dispenser, and the measurement of fluorescence intensity was continued for 3 min. For each well, the specific maximum fluorescence intensity was calculated as the ratio of the maximum fluorescence intensity after addition of the ATP solution to the fluorescence intensity at the starting of the measurement. […] FDSS software (Hamamatsu Photonics K.K.) was used for calculation of the specific maximum fluorescence intensity. IC50 was calculated using Microsoft™ Excel™ (Microsoft Corporation) and XLfit™ (ID Business Solutions Ltd.).
The IC50 is the concentration that inhibits the measured activity by half. Consider `CCOC(=O)c1ccc(N2C(=O)C(O)=C(C(=O)C(C)(C)C)C2c2ccccc2OC)cc1` (centres unmarked) [Compound I-001], for which the IC50 came to 32 nM. Then `CCC(CC)C1C(C(=O)c2ccc(C(=O)N(C)C)cc2)=C(O)C(=O)N1c1ccc(-c2noc(C)n2)cc1` (centres unmarked) [Compound I-002], with 24 nM; and `CCC(CC)C1C(C(=O)c2ccc(C(=O)N(C)C)cc2)=C(O)C(=O)N1c1ccc(-c2ccon2)cc1` (centres unmarked) [Compound I-003], with 40 nM. In the case of `CCNC(=O)c1ccc(C(=O)C2=C(O)C(=O)N(c3ccc(-c4ccon4)cc3)C2C(CC)CC)cc1` (centres unmarked) [Compound I-004], the concentration for half-maximal inhibition (IC50) was 12 nM. As to `CC(C)(C)C(=O)C1=C(O)C(=O)N(c2ccc(-c3ccon3)cc2)C1c1cccc[n+]1[O-]` (centres unmarked) [Compound I-005], the IC50 was 247 nM. For `CCCC(CCC)C1C(C(=O)c2ccc(CO)cc2)=C(O)C(=O)N1c1ccc(-c2ccon2)cc1` (centres unmarked) [Compound I-006], the IC50 is 27 nM. For `CCCCC(CCCC)C1C(C(=O)c2ccc(CO)cc2)=C(O)C(=O)N1c1ccc(-c2ccon2)cc1` (centres unmarked) [Compound I-007], the IC50 was 100 nM. As to `CCC(CC)C1C(C(=O)c2ccc(C(=O)NCCO)cc2)=C(O)C(=O)N1c1ccc(-c2ccon2)cc1` (centres unmarked) [Compound I-008], the IC50 turned out to be 14 nM. Then `COc1ccc(C(=O)C2=C(O)C(=O)N(c3nc4ccc(OC)cc4s3)C2C2CCCCC2)cc1` (centres unmarked) [Compound I-009], with 14 nM. Consider `COc1ccccc1C1C(C(=O)C(F)(F)F)=C(O)C(=O)N1c1ccc(-c2ccon2)cc1` (centres unmarked) [Compound I-010], for which the IC50 turned out to be 595 nM. Take `COc1cc(F)ccc1C1C(C(=O)C(C)(C)C)=C(O)C(=O)N1c1ccc(-c2ccon2)cc1` (centres unmarked) [Compound I-011]: the IC50 was determined as 270 nM. As for `COc1ccc(C(=O)C2=C(O)C(=O)N(c3ccc4[nH]ccc4c3)C2C2CCCCC2)cc1` (centres unmarked) [Compound I-012], the figure is 340 nM. Then `COc1ccc(C(=O)C2=C(O)C(=O)N(c3ccc(-c4cccn4C)cc3)C2C2CCCCC2)cc1` (centres unmarked) [Compound I-014], with 134 nM. For `COc1ccc(C(=O)C2=C(O)C(=O)N(c3ccc(-c4ccco4)cc3)C2C2CCCCC2)cc1` (centres unmarked) [Compound I-015], the IC50 came out at 12 nM.

For `O=C(C1=C(O)C(=O)N(c2ccc(-c3ccon3)cc2)C1C1CCCCC1)c1ccc(Br)cc1` (centres unmarked) [Compound I-016], the IC50 is 79 nM.

In the case of `CC(C)(C)C(=O)C1=C(O)C(=O)N(c2ccc(-c3ccon3)cc2)C1c1ccccc1OC(F)(F)F` (centres unmarked) [Compound I-019], the IC50 came out at 132 nM. As for `COc1ccc(C(=O)C2=C(O)C(=O)N(c3ccc(-c4nc(C)no4)cc3)C2C2CCCCC2)cc1` (centres unmarked) [Compound I-020], the figure is 21 nM; as for `COc1ccc(F)cc1C1C(C(=O)C(C)(C)C)=C(O)C(=O)N1c1ccc(-c2ccon2)cc1` (centres unmarked) [Compound I-021], 382 nM. As to `O=C(C1=C(O)C(=O)N(c2ccc(-c3ccon3)cc2)C1C1CCCCC1)c1ccc(OC(F)(F)F)cc1` (centres unmarked) [Compound I-026], the IC50 was found to be 339 nM.

On to `COc1ccc(C(=O)C2=C(O)C(=O)N(c3ccc(-c4cc(C)no4)cc3)C2c2ccccc2OC)cc1` (centres unmarked) [Compound I-027], for which the IC50 was found to be 40 nM. Then `COc1ccc(C(=O)C2=C(O)C(=O)N(c3ccc(C4=NCCS4)cc3)C2c2ccccc2OC)cc1` (centres unmarked) [Compound I-028], with 75 nM; and `COc1ccc(C(=O)C2=C(O)C(=O)N(c3ccc(-c4nccs4)cc3)C2c2ccccc2OC)cc1` (centres unmarked) [Compound I-029], with 160 nM; and `COc1ccc(C(=O)C2=C(O)C(=O)N(c3ccc(-c4noc(C)n4)cc3)C2c2ccccc2OC)cc1` (centres unmarked) [Compound I-030], with 53 nM. For `COc1ccccc1C1C(C(=O)C2(CO)CCCCC2)=C(O)C(=O)N1c1ccc(-c2ccon2)cc1` (centres unmarked) [Compound I-031], the IC50 is 700 nM.

In the case of `COc1ccc(C(=O)C2=C(O)C(=O)N(c3ccc(-c4nc(C)no4)cc3)C2c2ccccc2OC)cc1` (centres unmarked) [Compound I-032], the IC50 amounted to 160 nM. Regarding `COc1ccc(C(=O)C2=C(O)C(=O)N(c3ccc(-c4nnc(C)o4)cc3)C2c2ccccc2OC)cc1` (centres unmarked) [Compound I-033], the IC50 was found to be 53 nM. For the compound `COc1ccc(C(=O)C2=C(O)C(=O)N(c3ccc(-c4cccnc4)cc3)C2c2ccccc2OC)cc1` (centres unmarked) [Compound I-034], the IC50 is 700 nM. In the case of `COc1ccccc1C1C(C(=O)C(C)(C)C)=C(O)C(=O)N1c1ccc(C(C)C)cc1` (centres unmarked) [Compound I-037], the IC50 turned out to be 954 nM.

As to `COc1ccc2sc(N3C(=O)C(O)=C(C(=O)C(C)(C)C)C3c3ccccc3OC)nc2c1` (centres unmarked) [Compound I-038], the IC50 stood at 926 nM. Take `COc1ccc(C(=O)C2=C(O)C(=O)N(c3ccc(-c4ccoc4)cc3)C2C2CCCCC2)cc1` (centres unmarked) [Compound I-039]: the IC50 stood at 12 nM. In the case of `CCCc1ccc(N2C(=O)C(O)=C(C(=O)C(C)(C)C)C2c2ccccc2OC)cc1` (centres unmarked) [Compound I-044], the IC50 is 468 nM. As for `COc1ccccc1C1C(C(=O)C(C)(C)C)=C(O)C(=O)N1c1ccc(C(C)(C)C)cc1` (centres unmarked) [Compound I-046], the figure is 580 nM; as for `COc1ccccc1C1C(C(=O)C(C)(C)C)=C(O)C(=O)N1c1ccc(SC(F)(F)F)cc1` (centres unmarked) [Compound I-047], 221 nM; as for `COCc1ccccc1C1C(C(=O)C(C)(C)C)=C(O)C(=O)N1c1ccc(-c2cc(C)no2)cc1` (centres unmarked) [Compound I-050], 642 nM. For `COCc1ccccc1C1C(C(=O)C(C)(C)C)=C(O)C(=O)N1c1ccc(-c2noc(C)n2)cc1` (centres unmarked) [Compound I-051], the IC50 turned out to be 277 nM. As for `COc1ccccc1C1C(C(=O)C(C)(C)C)=C(O)C(=O)N1c1ccc(SC)cc1` (centres unmarked) [Compound I-052], the figure is 187 nM; as for `CC(C)(C)C(=O)C1=C(O)C(=O)N(c2ccc(-c3ccon3)cc2)C1c1cccc2c1OCO2` (centres unmarked) [Compound I-055], 596 nM; as for `CSc1ccccc1C1C(C(=O)C(C)(C)C)=C(O)C(=O)N1c1ccc(-c2ccon2)cc1` (centres unmarked) [Compound I-057], 159 nM. As for `CCOc1ccccc1C1C(C(=O)C(C)(C)C)=C(O)C(=O)N1c1ccc(-c2ccon2)cc1` (centres unmarked) [Compound I-059], the IC50 stood at 260 nM. On to `CC(C)(C)C(=O)C1=C(O)C(=O)N(c2ccc(-c3ccon3)cc2)C1c1ccccc1OC(F)F` (centres unmarked) [Compound I-064], for which the IC50 turned out to be 137 nM. Turning to `COc1ncccc1C1C(C(=O)C(C)(C)C)=C(O)C(=O)N1c1ccc(SC)cc1` (centres unmarked) [Compound I-066], the IC50 is 434 nM. Consider `COc1ccccc1C1C(C(=O)C(C)(C)CO)=C(O)C(=O)N1c1ccc(SC)cc1` (centres unmarked) [Compound I-068], for which the IC50 was determined as 305 nM.

As for `CN(C)c1ccccc1C1C(C(=O)C(C)(C)C)=C(O)C(=O)N1c1ccc(-c2ccon2)cc1` (centres unmarked) [Compound I-070], the IC50 was 519 nM. For `COc1ccccc1C1C(C(=O)CC(C)(C)C)=C(O)C(=O)N1c1ccc(-c2ccon2)cc1` (centres unmarked) [Compound I-072], the IC50 was found to be 352 nM. As for `COc1ccccc1C1C(C(=O)C(C)(C)C)=C(O)C(=O)N1c1ccc(-c2ccoc2)cc1` (centres unmarked) [Compound I-077], the figure is 48 nM.

`COc1ccccc1C1C(C(=O)C(C)(C)C)=C(O)C(=O)N1c1ccc(-c2cccs2)cc1` (centres unmarked) [Compound I-079]: the IC50 stood at 23 nM. In the case of `CSc1ccc(N2C(=O)C(O)=C(C(=O)C(C)(C)C)C2c2ccccc2OCCO)cc1` (centres unmarked) [Compound I-081], the IC50 was 151 nM. Consider `CC(C)(C)C(=O)C1=C(O)C(=O)N(c2ccc(-c3nccs3)cc2)C1c1ccccc1OCCO` (centres unmarked) [Compound I-082], for which the IC50 is 650 nM. As for `CC(C)(C)C(=O)C1=C(O)C(=O)N(c2ccc(-c3ccco3)cc2)C1c1ccccc1OCCO` (centres unmarked) [Compound I-085], the figure is 48 nM. As to `CCc1ccccc1C1C(C(=O)C(C)(C)C)=C(O)C(=O)N1c1ccc(-c2ccon2)cc1` (centres unmarked) [Compound I-091], the IC50 was 341 nM. Regarding `COc1ccccc1C1C(C(=O)C(C)(C)C)=C(O)C(=O)N1c1ccc(-c2ccco2)cc1` (centres unmarked) [Compound I-092], the IC50 came to 92 nM. For the compound `COc1ccccc1C1C(C(=O)C(C)(C)C)=C(O)C(=O)N1c1ccc(-c2ccoc2)nc1` (centres unmarked) [Compound I-093], the IC50 stood at 756 nM.

With `COc1ccccc1C1C(C(=O)C(C)(C)C)=C(O)C(=O)N1c1ccc(-c2cc[nH]c2)cc1` (centres unmarked) [Compound I-094], the IC50 stood at 301 nM.

Turning to `COc1ccccc1C1C2C(=O)C(C)(C)COC2(O)C(=O)N1c1ccc(-c2ccsc2)cn1` (centres unmarked) [Compound I-095], the half-inhibitory concentration (IC50) was determined as 195 nM.

Take `COCCOc1ccccc1C1C(C(=O)C(C)(C)C)=C(O)C(=O)N1c1ccc(-c2ccon2)cc1` (centres unmarked) [Compound I-098]: the IC50 was determined as 370 nM. With `COc1ccccc1C1C(C(=O)C(C)(C)C)=C(N)C(=O)N1c1ccc(-c2ccon2)cc1` (centres unmarked) [Compound I-102], the IC50 was found to be 134 nM.
